What was measured:
human mAChR M4 = biological target: T1, human mAChR M4 (Homo sapiens, UniProt P08173); experiment: mAChR M4 cell-based functional assay (calcium flux), human M4; details: for Emax: Human M4, % ACh maximum at 30 μM; for EC50: Human M4 EC50, CHO-K1 hM4-Gqi5 cells, calcium flux, increase in EC20 acetylcholine response
T1 sequence (P08173 1-479): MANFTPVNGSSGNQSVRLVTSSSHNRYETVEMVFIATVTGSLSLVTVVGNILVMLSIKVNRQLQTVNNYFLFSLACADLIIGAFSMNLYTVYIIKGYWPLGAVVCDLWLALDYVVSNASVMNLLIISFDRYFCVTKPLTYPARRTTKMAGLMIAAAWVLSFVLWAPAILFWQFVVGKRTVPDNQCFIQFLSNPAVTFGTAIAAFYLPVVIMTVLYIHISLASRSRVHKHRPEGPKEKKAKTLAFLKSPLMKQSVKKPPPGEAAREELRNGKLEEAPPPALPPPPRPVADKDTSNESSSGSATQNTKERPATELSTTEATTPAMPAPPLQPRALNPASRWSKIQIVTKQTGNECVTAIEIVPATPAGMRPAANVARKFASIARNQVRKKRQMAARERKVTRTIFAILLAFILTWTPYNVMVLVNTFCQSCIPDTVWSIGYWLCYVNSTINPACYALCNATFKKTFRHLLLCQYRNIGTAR

rat mAChR M4 = biological target: T2, rat mAChR M4 (Rattus norvegicus, UniProt P08485); experiment: mAChR M4 cell-based functional assay (calcium flux), rat M4; parameters: Emax: dose or concentration left out as unconfirmed; details: for EC50: read-out: Rat M4 EC50, CHO-K1 rM4-Gqi5 cells, calcium flux, increase in EC20 acetylcholine response
T2 sequence (P08485 1-478): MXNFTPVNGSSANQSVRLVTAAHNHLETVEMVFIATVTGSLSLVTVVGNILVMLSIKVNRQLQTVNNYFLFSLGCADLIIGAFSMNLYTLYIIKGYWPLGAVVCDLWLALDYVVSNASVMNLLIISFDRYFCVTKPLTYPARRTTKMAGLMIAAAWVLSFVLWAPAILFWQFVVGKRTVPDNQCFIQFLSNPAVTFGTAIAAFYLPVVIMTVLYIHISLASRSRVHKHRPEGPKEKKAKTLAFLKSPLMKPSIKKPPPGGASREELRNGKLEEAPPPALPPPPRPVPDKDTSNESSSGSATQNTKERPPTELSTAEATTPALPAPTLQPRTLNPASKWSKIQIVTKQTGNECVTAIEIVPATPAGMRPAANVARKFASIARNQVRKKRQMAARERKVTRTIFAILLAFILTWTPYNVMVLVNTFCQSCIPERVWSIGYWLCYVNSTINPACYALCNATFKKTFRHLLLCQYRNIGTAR

[1] = tested on: amphetamine-induced hyperlocomotion; experiment: amphetamine-induced hyperlocomotion in rats; format: in vivo, male Sprague-Dawley rats; details: 10 mg/kg p.o.; rat; 1 mg/kg amphetamine s.c.
Procedure: d-Amphetamine hemisulfate was obtained from Sigma (St. Louis, Mo.). Salt-correction was used to determine the correct amount of the d-amphetamine hemisulfate form in milligrams to add to sterile water in order to yield a […] solution, which would be dosed at 1 mL/kg body weight of each animal. […] The solutions were formulated so that animals were injected with a volume equal to 10 mL/kg body weight for all compounds. The appropriate amount according to the dosage was mixed in 10% Tween 80 (Sigma) in sterile water. The mixtures were then vortexed and stored in a 39° C. sonication bath for 1 hour, until in a microsuspension (except for the highest dose, which was a suspension).
Male Sprague-Dawley rats weighing 239-300 grams and averaging 265 g (Harlan, Inc., Indianapolis, Ind.) were used. They were housed in the animal care facility certified by the American Association for the Accreditation of Laboratory Animal Care (AALAC) under a 12-hour light/dark cycle (lights on: 6 a.m.; lights off: 6 p.m.) and had free access to food and water. The animals used in this experiment were food-deprived the evening before experimentation for oral dosing of compound/vehicle. The experimental protocols performed during the light cycle were approved by the Institutional Animals Care and Use Committee of Vanderbilt University and conformed to the guidelines established by the National Research Council Guide for the Care and Use of Laboratory Animals.
Male Harlan Sprague Dawley rats were habituated in Smart Open Field locomotor activity test chambers (Hamilton-Kinder, San Diego, Calif.) with 16×16 photo beams to automatically record locomotor activity. […] They were monitored for an additional 30 minutes and then injected subcutaneously with vehicle or 1 mg/kg amphetamine. Animals were then monitored for an additional 60 minutes, for a total of 120 minutes. Data were expressed as changes in ambulation defined as total number of beam breaks per 5 minute interval. Terminal brain and plasma samples were collected at the end of the study for pharmacokinetic analysis.
Behavioral data were analyzed using a two-way ANOVA with main effects of treatment and time. Post hoc analysis was performed using a Dunnett's t-test with all treatment groups compared to the VAMP group using GraphPad Prism V.5.04 (GraphPad Software, San Diego, Calif.). Data were graphed using GraphPad Prism V.5.04 (GraphPad Software, San Diego, Calif.). A probability of p<0.05 was taken as the level of statistical significance. In addition, the total number of beam breaks from the amphetamine administration (65 min) to the end of the study (120 min) was calculated and graphed. Percent Reversal was calculated as follows using Microsoft Excel: In each animal, total ambulation from t=65 to t=120 was summed. The mean of each sum was calculated in the VAMP group. Then, for each animal, Percent Reversal was calculated with the following formula: Percent Reversal=100−{[(total ambulation in each animal from t=65 to t=120)/(mean of each sum from t=65 to t=120 in VAMP group)]*100}. The mean Percent Reversal, as well as the standard error, was calculated for each dose group using GraphPad Prism V5.04.

Structure (SMILES)	Emax (human mAChR M4) [%]	EC50 (human mAChR M4) [nM]	Emax (rat mAChR M4) [%]	EC50 (rat mAChR M4) [nM]	percent reversal of amphetamine-induced hyperlocomotion [1] [%]
Cc1cnc2sc3c(N4CC5(COC5)C4)ncnc3c2c1 [Compound 19, 6-(8-methylpyrido [3′,2′:4,5]thieno[3,2-d]pyrimidin-4-yl)-2-oxa-6-azaspiro[3.3]heptane]	36	456	54	1150	
FC(F)(F)c1cnc(N2CC(Nc3ncnc4c3sc3nccnc34)C2)nc1 [Compound 20, N-(1-(5-(trifluoromethyl)pyrimidin-2-yl)azetidin-3-yl)pyrazino[2′,3′:4,5] thieno[3,2-d]pyrimidin-4-amine]		> 10000	46	2800	
Cc1nnc2sc3c(N4CC(c5ccncc5)C4)ncnc3c2c1C [Compound 24, 3,4-dimethyl-8-(3-(pyridin-4-yl)azetidin-1-yl)pyrimido[4′,5′:4,5] thieno[2,3-c]pyridazine]	62		40	185	
Cc1nnc2sc(C(=O)NCc3ccc(S(=O)(=O)C(F)(F)F)cc3)c(N)c2c1C [VU0467154, reference compound]					58.9

— patent US10239887B2, “Positive allosteric modulators of the muscarinic acetylcholine receptor M4” (Vanderbilt University, priority 2016, dated 2019)
